{"source": "patent US5447716A", "about": "“Process for lightening the skin or treating pigmental blemishes using a composition containing benzomorpholine or 3,4-dihydro-2H-1,4-benzoxazine derivatives” (L'Oreal, priority 1993, dated 1995)", "key": {"fungal tyrosinase": {"tested_on": "fungal tyrosinase", "assay": "in vitro inhibition test of the activity of tyrosinase (dopachrome formation at 475 nm)", "format": "biochemical", "details": "inhibitor at 50 mol % with respect to tyrosine; L-dopa co-substrate; pH 6.5, 25° C.; lowering in maximum dopachrome (OD 475 nm at plateau) vs no inhibitor", "source_text": "Some of the compounds of general formula (I) have been studied in comparison with an equivalent molar amount of hydroquinone in the in vitro inhibition test of the activity of tyrosinase.\nAccording to this test, the amount of dopachrome formed during the chain of reactions of conversion of tyrosine to melanins is monitored by visible spectrometry at 475 nm. These reactions are catalyzed in vitro by fungal tyrosinase, in the presence of a reducing co-substrate (for example, a small amount of L-dopa) in order to initiate the hydroxylation reaction of L-tyrosine to L-dopa, which is then catalytically oxidized to dopaquinone and then to dopachrome, an intermediate product before the non-enzymatic oxidation reactions which result in the formation of melanins.\nThe concentration of dopachrome formed with time in the presence and in the absence of the inhibitor is thus measured.\nThe inhibitor concentrations are set at 50 mol % with respect to the concentration of tyrosine in the reaction medium.\nThe inhibition effect is expressed by the lowering in the maximum amount of dopachrome formed (optical density value at 475 nm read at the plateau of the curve) with respect to the amount obtained in the absence of inhibitor.\nA--0.1M Phosphate buffer, pH=6.5 (1% Tween 20)\nB--2·10^-3 M Mother solution of L-tyrosine in A\nC--10^-4 M Mother solution of L-dopa in A\nD--Mother solution of fungal tyrosinase in A containing 2,400 units/ml\nE--10^-2 M Mother solution of the inhibitor in A (Solutions C and D are to be prepared on the day)\nreference cell: 3 ml of A\nhomogenize and equilibrate at 25° C.\nmix rapidly and observe the kinetics by measuring the absorbance at 475 nm as a function of time."}, "melanocytes": {"tested_on": "melanocytes", "details": "in words, background; cited from earlier work"}, "[1]": {"details": "in words, background; cited from earlier work"}}}
{"molecule": "Oc1ccc2c(c1)OCCN2", "values": [{"measurement": "% of inhibition", "setting": "fungal tyrosinase", "result": -71, "unit": "%"}]}
{"molecule": "Oc1ccc(O)cc1", "note": "[hydroquinone]", "values": [{"measurement": "% of inhibition", "setting": "fungal tyrosinase", "result": -33, "unit": "%"}, {"measurement": "cytotoxicity for melanocytes", "setting": "melanocytes", "result": "cytotoxic"}, {"measurement": "irritation", "setting": "[1]", "result": "particularly irritating"}]}
{"molecule": "Oc1ccc2c(c1)NCCO2", "values": [{"measurement": "% of inhibition", "setting": "fungal tyrosinase", "result": -80, "unit": "%"}]}
